Results from patent US12630498B2 (Genzyme Corporation, priority 2019, dated 2026).

How the values were obtained:
[1] = molecular target: T1, human Cystic Fibrosis Transmembrane Conductance Regulator (CFTR) harboring the ΔF508 mutation (Homo sapiens, UniProt P13569, DEL508-508); assay: H441 cell ΔF508-CFTR-HRP cell surface assay (Emax and EC50); assay type: cell-based; conditions: for Emax: NCI-H441, NA = Not active
T1 construct: expressed in transfected cells; host or cells: H441 carcinoma line (G418-selected)
How it was run: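 H441 and 41o- bronchial epithelial cells expressing ΔF508-CFTR with an extracellular-loop-4 HRP tag were treated with a 15-point compound series (24.5–0.001 μM) for two nights, H441 at 27° C, 41o- at 37° C with 0.0005 mg/ml doxycycline. Surface HRP luminescence read; % of maximum VX809 signal and EC50 derived.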

[2] = molecular target: T2, CFTR-mediated transepithelial chloride transport in primary human bronchial epithelial cells from a ΔF508 homozygous CF donor (Homo sapiens, UniProt P13569, DEL508-508); assay: TECC24 recording of CFTR-mediated transepithelial chloride transport in CF-HBE cells (AUC fold over DMSO); assay type: cell-based; conditions: test agent 10 μM, 48 hours incubation, AUC of forskolin-stimulated IEQ relative to DMSO
T2 construct: Primary human bronchial epithelial cells from a ΔF508 homozygous CF donor; host or cells: primary CF-HBE cells, ΔF508 homozygous donor
How it was run: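 Equivalent Cl⁻ current was derived from transepithelial voltage and resistance, and its AUC from forskolin (10 μM) to CFTRinh-172 (20 μM) was divided by the DMSO AUC. Benzamil 10 μM blocked ENaC. Cells were ΔF508-homozygous primary bronchial epithelia pretreated 48 h at 36.5 °C in IL-13 medium.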

T2 sequence (P13569 with tags, fused parts or gaps DEL508-508): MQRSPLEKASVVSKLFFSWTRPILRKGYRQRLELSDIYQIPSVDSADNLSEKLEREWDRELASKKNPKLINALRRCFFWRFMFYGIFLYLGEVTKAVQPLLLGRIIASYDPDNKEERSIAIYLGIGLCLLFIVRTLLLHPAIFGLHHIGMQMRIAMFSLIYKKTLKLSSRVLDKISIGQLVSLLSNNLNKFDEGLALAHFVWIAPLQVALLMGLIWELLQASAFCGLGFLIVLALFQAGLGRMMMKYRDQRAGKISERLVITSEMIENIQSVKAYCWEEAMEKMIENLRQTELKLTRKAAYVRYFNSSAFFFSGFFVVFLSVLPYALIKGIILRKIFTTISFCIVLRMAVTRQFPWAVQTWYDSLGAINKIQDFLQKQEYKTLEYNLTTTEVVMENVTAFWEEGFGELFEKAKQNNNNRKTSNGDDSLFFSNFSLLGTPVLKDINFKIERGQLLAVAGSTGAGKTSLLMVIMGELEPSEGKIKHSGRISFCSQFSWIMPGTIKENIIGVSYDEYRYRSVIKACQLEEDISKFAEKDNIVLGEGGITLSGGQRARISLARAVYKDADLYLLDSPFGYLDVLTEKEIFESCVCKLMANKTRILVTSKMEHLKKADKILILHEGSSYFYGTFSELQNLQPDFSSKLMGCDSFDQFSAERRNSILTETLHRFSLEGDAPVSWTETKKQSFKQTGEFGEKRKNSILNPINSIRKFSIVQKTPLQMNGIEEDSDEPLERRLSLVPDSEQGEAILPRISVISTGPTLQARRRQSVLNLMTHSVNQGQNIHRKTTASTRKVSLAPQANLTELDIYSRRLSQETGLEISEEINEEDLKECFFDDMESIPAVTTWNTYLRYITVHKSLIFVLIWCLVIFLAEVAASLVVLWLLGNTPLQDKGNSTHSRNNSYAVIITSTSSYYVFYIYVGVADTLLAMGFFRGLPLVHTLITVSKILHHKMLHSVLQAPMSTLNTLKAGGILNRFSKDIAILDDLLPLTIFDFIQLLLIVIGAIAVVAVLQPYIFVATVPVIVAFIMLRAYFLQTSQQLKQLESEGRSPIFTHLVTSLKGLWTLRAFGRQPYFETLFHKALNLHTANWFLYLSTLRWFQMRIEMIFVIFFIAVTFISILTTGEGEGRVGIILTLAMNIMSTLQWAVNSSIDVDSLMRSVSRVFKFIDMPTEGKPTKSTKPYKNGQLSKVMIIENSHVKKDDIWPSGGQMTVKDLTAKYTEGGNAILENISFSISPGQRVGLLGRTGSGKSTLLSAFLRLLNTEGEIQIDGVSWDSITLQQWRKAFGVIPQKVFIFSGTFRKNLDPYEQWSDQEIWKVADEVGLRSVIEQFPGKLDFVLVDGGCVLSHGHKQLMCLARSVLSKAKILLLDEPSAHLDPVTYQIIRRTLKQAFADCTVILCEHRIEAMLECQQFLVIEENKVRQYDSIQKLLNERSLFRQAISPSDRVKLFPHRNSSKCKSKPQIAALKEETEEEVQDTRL
T1 sequence (P13569 with tags, fused parts or gaps DEL508-508): as above

For `CCCC(C)(C)[C@H](NC(=O)c1ccc2ccc(C(F)(F)F)cc2c1OCc1ccc(C(F)(F)F)cc1)C(=O)O` [Example 304, (S)-3,3-dimethyl-2-(7-(trifluoromethyl)-1-((4-(trifluoromethyl)benzyl)oxy)-2-naphthamido)hexanoic Acid], the EC50 [1] was 100 nM, the Emax [1] was 249% and the “TECC24 AUC fold over DMSO @10 μM” value [2] was “A (“A” refers to AUC @10 uM >6)”.
In the case of `C[C@@H](OCc1ccccc1)[C@H](NC(=O)c1ccc2cc(F)ccc2c1OCC1CCCCC1)C(=O)O` (stereo in doubt) [Example 202], the EC50 [1] is reported as 4100 nM, the Emax [1] is reported as 112% and the “TECC24 AUC fold over DMSO @10 μM” value [2] is reported as “C (“C” refers to AUC @10 uM <4)”.
For `Cc1cc(COc2c(C(=O)N[C@H](C(=O)O)C(C)(C)C)ccc3ccccc23)no1` [Example 86, (S)-3,3-dimethyl-2-(1-((5-methylisoxazol-3-yl)methoxy)-2-naphthamido)butanoic Acid], the EC50 [1] was 5600 nM, the Emax [1] was 108% and the “TECC24 AUC fold over DMSO @10 μM” value [2] was “C (“C” refers to AUC @10 uM <4)”.
With `O=C(N[C@H](C(=O)O)C(c1ccccc1)c1ccccc1)c1ccc2ccccc2c1OCc1ccc(C(F)(F)C(F)(F)F)cc1` [Example 131, (S)-2-(1-((4-(perfluoroethyl)benzyl)oxy)-2-naphthamido)-3,3-diphenylpropanoic Acid] the EC50 [1] was 100 nM, the Emax [1] was 204% and the “TECC24 AUC fold over DMSO @10 μM” value [2] was “C (“C” refers to AUC @10 uM <4)”.
With `O=C(N[C@H](C(=O)O)C12CC(C(F)(F)F)(C1)C2)c1ccc2ccccc2c1OCc1ccc(SC(F)(F)F)cc1` [Example 17, (S)-2-(3-(trifluoromethyl)bicyclo[1.1.1]pentan-1-yl)-2-(1-((4-((trifluoromethyl)thio)benzyl)oxy)-2-naphthamido)acetic Acid] the EC50 [1] was 700 nM, the Emax [1] was 63.9% and the “TECC24 AUC fold over DMSO @10 μM” value [2] was “C (“C” refers to AUC @10 uM <4)”.
In the case of `CC(C)(C)[C@H](NC(=O)c1ccc2ccccc2c1OCc1ccc(C(F)(F)C(F)(F)F)cc1)C(=O)O` [Example 37, (S)-3,3-dimethyl-2-(1-((4-(perfluoroethyl)benzyl)oxy)-2-naphthamido)butanoic Acid], the EC50 [1] is reported as 300 nM, the Emax [1] is reported as 195% and the “TECC24 AUC fold over DMSO @10 μM” value [2] is reported as “C (“C” refers to AUC @10 uM <4)”.
For `CCC(C)(C)[C@H](NC(=O)c1ccc2ccc(F)cc2c1OCc1ccc(C(F)(F)F)cc1)C(=O)O` [Example 274, (2S)-2-[[7-fluoro-1-[[4-(trifluoromethyl)phenyl]methoxy]naphthalene-2-carbonyl]amino]-3,3-dimethyl-pentanoic Acid], the EC50 [1] was 200 nM, the Emax [1] was 195% and the “TECC24 AUC fold over DMSO @10 μM” value [2] was “A (“A” refers to AUC @10 uM >6)”.
In the case of `CCC(C)(C)[C@H](NC(=O)c1ccc2ccc(Cl)cc2c1OCc1ccc(C(F)(F)F)cc1)C(=O)O` [Example 283, (S)-2-(7-chloro-1-((4-(trifluoromethyl)benzyl)oxy)-2-naphthamido)-3,3-dimethylpentanoic Acid], the EC50 [1] is reported as 200 nM, the Emax [1] is reported as 313% and the “TECC24 AUC fold over DMSO @10 μM” value [2] is reported as “A (“A” refers to AUC @10 uM >6)”.
With `CC(C)(C)[C@H](NC(=O)c1ccc2cc(F)ccc2c1OCC1CCCCC1)C(=O)O` [Example 45, (S)-2-(1-(cyclohexylmethoxy)-6-fluoro-2-naphthamido)-3,3-dimethylbutanoic Acid] the EC50 [1] was 1800 nM, the Emax [1] was 94.7% and the “TECC24 AUC fold over DMSO @10 μM” value [2] was “C (“C” refers to AUC @10 uM <4)”.
With `CCC1([C@H](NC(=O)c2ccc3ccc(F)cc3c2OCc2ccc(OC(F)(F)F)cc2)C(=O)O)CCCC1` [Example 313, (S)-2-(1-ethylcyclopentyl)-2-(7-fluoro-1-((4-(trifluoromethoxy)benzyl)oxy)-2-naphthamido)acetic Acid] the EC50 [1] was 300 nM, the Emax [1] was 152% and the “TECC24 AUC fold over DMSO @10 μM” value [2] was “A (“A” refers to AUC @10 uM >6)”.
In the case of `C#CC(C)(C)C(NC(=O)c1ccc2ccccc2c1OCc1ccc(C(F)(F)F)cc1)C(=O)O` (stereo not drawn) [Example 228, 3,3-dimethyl-2-[[1-[[4-(trifluoromethyl)phenyl]methoxy]naphthalene-2-carbonyl]amino]pent-4-ynoic Acid], the EC50 [1] is reported as 2000 nM, the Emax [1] is reported as 215% and the “TECC24 AUC fold over DMSO @10 μM” value [2] is reported as “A (“A” refers to AUC @10 uM >6)”.
For `CC(C)(C)[C@H](NC(=O)c1ccc2cc(F)ccc2c1OCc1nc2ccccc2s1)C(=O)O` [Example 61, (S)-2-(1-(benzo[d]thiazol-2-ylmethoxy)-6-fluoro-2-naphthamido)-3,3-dimethylbutanoic Acid], the EC50 [1] was 2700 nM, the Emax [1] was 132% and the “TECC24 AUC fold over DMSO @10 μM” value [2] was “C (“C” refers to AUC @10 uM <4)”.
With `O=C(N[C@H](C(=O)O)C12CC(C(F)(F)F)(C1)C2)c1ccc2ccccc2c1OCc1ccc(C(F)(F)F)cc1` [Example 13, (S)-2-(1-((4-(trifluoromethyl)benzyl)oxy)-2-naphthamido)-2-(3-(trifluoromethyl)bicyclo[1.1.1]pentan-1-yl)acetic Acid] the EC50 [1] was 1200 nM, the Emax [1] was 81.3% and the “TECC24 AUC fold over DMSO @10 μM” value [2] was “C (“C” refers to AUC @10 uM <4)”.
With `CCC(C)(C)[C@H](NC(=O)c1ccc2c(F)cccc2c1OCc1ccc(C(F)(F)F)cc1)C(=O)O` [Example 230, (2S)-2-[[5-fluoro-1-[[4-(trifluoromethyl)phenyl]methoxy]naphthalene-2-carbonyl]amino]-3,3-dimethyl-pentanoic Acid] the EC50 [1] was 600 nM, the Emax [1] was 152% and the “TECC24 AUC fold over DMSO @10 μM” value [2] was “A (“A” refers to AUC @10 uM >6)”.
In the case of `CC1(C(NC(=O)c2ccc3ccccc3c2OCc2ccc(OC(F)(F)F)cc2)C(=O)O)CCCCC1` (stereo not drawn) [Example 1, 2-(1-methylcyclohexyl)-2-[[1-[[4-(trifluoromethoxy)phenyl]methoxy]naphthalene-2-carbonyl]amino]acetic Acid], the EC50 [1] is reported as 700 nM, the Emax [1] is reported as 164% and the “TECC24 AUC fold over DMSO @10 μM” value [2] is reported as “B (“B” refers to AUC @10 uM between 4-6)”.
With `CC(C)(C)[C@H](NC(=O)c1ccc2cc(O)ccc2c1OCc1ccc(C(F)(F)F)cc1)C(=O)O` [Example 59, (S)-2-(6-hydroxy-1-((4-(trifluoromethyl)benzyl)oxy)-2-naphthamido)-3,3-dimethylbutanoic Acid] the EC50 [1] was 1900 nM, the Emax [1] was 108% and the “TECC24 AUC fold over DMSO @10 μM” value [2] was “C (“C” refers to AUC @10 uM <4)”.
With `CC(C)(C)[C@H](NC(=O)c1ccc2cc(F)ccc2c1OCc1ccc(S(F)(F)(F)(F)F)cc1)C(=O)O` [Example 81, (S)-2-(6-fluoro-1-((4-(pentafluoro-16-sulfanyl)benzyl)oxy)-2-naphthamido)-3,3-dimethylbutanoic Acid] the EC50 [1] was 700 nM, the Emax [1] was 91.9% and the “TECC24 AUC fold over DMSO @10 μM” value [2] was “A (“A” refers to AUC @10 uM >6)”.
In the case of `CC(C)(C)[C@H](NC(=O)c1ccc2ccccc2c1OC[C@H]1CC[C@@H](C(F)(F)F)CC1)C(=O)O` [Example 26, (S)-3,3-dimethyl-2-(1-(((1s,4R)-4-(trifluoromethyl)cyclohexyl)methoxy)-2-naphthamido)butanoic Acid], the EC50 [1] is reported as 4600 nM, the Emax [1] is reported as 98.8% and the “TECC24 AUC fold over DMSO @10 μM” value [2] is reported as “C (“C” refers to AUC @10 uM <4)”.
For `O=C(N[C@H](C(=O)O)C(c1ccccc1)c1ccccc1)c1ccc2ccccc2c1OCc1nc2ccccc2s1` [Example 212, (S)-2-(1-(benzo[d]thiazol-2-ylmethoxy)-2-naphthamido)-3,3-diphenylpropanoic Acid], the EC50 [1] was 1200 nM, the Emax [1] was 141% and the “TECC24 AUC fold over DMSO @10 μM” value [2] was “C (“C” refers to AUC @10 uM <4)”.
